US6395762B1, “Phenyl amino squarate and thiadiazole dioxide beta-3 adrenergic receptor agonists” (American Home Products Corporation, priority 2000, dated 2002)

Target: T1, human β3-AR (Homo sapiens, UniProt P13945)
T1 construct: Full-length β3-AR clones (402 amino acids) containing the last 6 amino acids of hβ3-AR; expressed in transfected cells; host or cells: CHO (Chinese hamster ovary) cells
Assay: cAMP accumulation (SPA) in CHO cells transfected with human β3-AR
Type: cell-based
Settings: CHO cells transfected with human β3-AR; for IA(β3): maximal response of compound relative to maximal response of isoproterenol at 10^−5 M; for EC50: cAMP by SPA, 30 min at 37° C., 10^−9 M to 10^−5 M, read-out: EC50(β3)
Protocol: The ability of the compounds of this invention to treat or inhibit disorders related to insulin resistance or hyperglycemia was confirmed with representative compounds of this invention in the following standard pharmacological test procedures, which measured the binding selectivity of the β1-, β2-, and β3-AR. Binding to the receptors was measured in Chinese Hamster ovary (CHO) cells that were transfected with β1-, β2-, and β3-AR's. The following briefly summarizes the procedures used and results obtained.
Cloning of Human β3-AR Genomic DNA: cDNA was constructed by ligating four polymerase chain reaction (PCR) products using the following primers: an ATG-Narl fragment, sense primer 5′-[…]3′ and anti-sense primer 5′[…]3′; a Narl-Accl fragment, 5′[…]3′ as sense and 5′[…]3′ as anti-sense primer; an Accli—Styl fragment, sense primer 5′[…]3′ and anti-sense primer 5′[…]3′ and a Styl-TAG fragment, with sense primer 5′ […]3′ and anti-sense primer 5′ […]3′ . The corresponding primer sequences are described in Mantzoros, C. S., et.al., Diabetes, 1996, 45, 909-914. The four fragments are ligated into a pUC 18 plasmid (Gibco-BRL) and sequenced. Full-length β3-AR clones (402 amino acids) containing the last 6 amino acids of hβ3-AR are prepared with the β3-βARpcDNA3 from ATTC.
Binding Procedure: Clones expressing receptor levels of 70 to 110 fmoles/mg protein were used in the test procedures. CHO cells were grown in 24-well tissue culture plates in Dulbecco's Modified Eagle Media with 10% fetal bovine serum, MEM non-essential amino acids, Penicillin—Streptomycin and Geneticin. On the day of test procedure, growth medium was replaced with preincubation media (Dulbecco's Modified Eagle Media) and incubated for 30 minutes at 37° C. Pre-incubation medium was replaced with 0.2 ml treatment medium containing DMEM media containing 250 μM IBMX (isobutyl-1-methylxantine) plus 1 mM ascorbic acid with test compound dissolved in DMSO. Test compounds were assayed over a concentration range of 10^−9 M to 10^−5 M for β3-AR transfected cells and 10^−8 to 10^−4 M for β1-AR and β2-AR transfected cells. Isoproterenol (10^−5 M) was used as an internal standard for comparison of activity. Cells were incubated at 37° C. on a rocker for 30 min with the β3-AR transfected cells and 15 min with β1-AR and β2-AR transfected cells. Incubation was stopped by the addition of 0.2N HCl and the acid was neutralized with 2.5N NaOH. The plates, containing the cells and neutralized media, were stored at −20° C. until ready to test for cAMP using the SPA test kit (Amersham).
Data Analysis and Results: Data collected from the SPA test procedure were analyzed as percent of the maximal isoproterenol response at 10^−5 M. Activity curves were plotted using the SAS statistical and graphics software.

T1 sequence (P13945 whole entry): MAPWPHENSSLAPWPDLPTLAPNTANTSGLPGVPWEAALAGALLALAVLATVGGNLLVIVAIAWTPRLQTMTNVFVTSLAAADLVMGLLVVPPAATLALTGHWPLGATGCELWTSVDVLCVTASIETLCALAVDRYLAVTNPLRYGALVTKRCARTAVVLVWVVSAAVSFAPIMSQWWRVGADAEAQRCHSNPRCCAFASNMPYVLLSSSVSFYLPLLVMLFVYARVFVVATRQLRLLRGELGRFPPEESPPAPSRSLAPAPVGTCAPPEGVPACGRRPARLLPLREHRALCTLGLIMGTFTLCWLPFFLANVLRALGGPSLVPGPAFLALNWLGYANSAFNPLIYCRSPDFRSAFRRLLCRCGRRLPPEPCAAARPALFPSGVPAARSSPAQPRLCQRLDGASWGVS

Row | Compound | IA(β3) | EC50 [nM]
1 | CCCCCCCCCCNC1=NS(=O)(=O)N=C1Nc1ccc(CC(C)NC[C@H](O)COc2cccc3[nH]c4ccccc4c23)cc1 (stereo partly drawn) [Compound 19, (2S)-1-(9H-Carbozol-4-yloxy)-3-{2-[4-(4-decylamino-1,1-dioxo-1H-1-.lambda(6).-[1,2,5]thiadiazol-3-ylamino)-phenyl]-1-methyl-ethylamino}-propan-2-ol] | 0.36 | 
2 | (2S)-1-(4-Benzyloxy-phenoxy)-3-{2-[4-(4-decylamino-1,1-dioxo-1H-1-. lambda(6).-[1,2,5]thiadiazol-3-ylamino)-phenyl]-1-methyl-ethylamino}-propan-2-ol [Compound 18] | 0.46 | 
3 | CCCCCCCCNC1=NS(=O)(=O)N=C1Nc1ccc(CC(C)NC[C@H](O)c2ccc(OCc3ccccc3)c(NS(C)(=O)=O)c2)cc1 (stereo partly drawn) [6 (step B), N-[2-Benzyloxy-5-((1R)-1-hydroxy-2-{1-methyl-2-[4-(4-octylamino-1,1-dioxo-1H-1(lambda(6))-[1,2,5]thiadiazol-3-ylamino)-phenyl]-ethylamino}-ethyl)-phenyl]-methanesulfonamide] | 0.32 | 
4 | CCCCCCCCNC1=NS(=O)(=O)N=C1Nc1ccc(CC(C)(C)NC[C@H](O)COc2ccc(OCc3ccccc3)cc2)cc1 [4 (step F)] | 0.37 | 1060
5 | CCCCCCCCCCNC1=NS(=O)(=O)N=C1Nc1ccc(CC(C)NC[C@H](O)COc2ccc(O)cc2)cc1 (stereo partly drawn) [Compound 25, 4-((2S)-3-{2-[4-(4-Decylamino-1,1-dioxo-1H-1(lambda(6))-[1,2,5]thiadiazol-3-ylamino)-phenyl]-1-methyl-ethylamino}-2-hydroxy-propoxy)-phenol] | 0.85 | 88
6 | CN(C)c1ccc(C2(CNC3=NS(=O)(=O)N=C3Nc3ccc(CC(C)(C)NC[C@H](O)COc4ccc(OCc5ccccc5)cc4)cc3)CCCC2)cc1 [7 (step E), (2S)-1-(4-Benzyloxy-phenoxy)-3-{2-{4-(4-{[1-(4-dimethylamino-phenyl)-cyclopentylmethyl]-amino}-1,1-dioxo-1H-1(lambda(6))-[1,2,5]thiadiazol-3-ylamino)-phenyl]-1,1-dimethyl-ethylamino}-propan-2-ol] | 0.56 | 682
7 | CN(C)c1ccc(C2(CNC3=NS(=O)(=O)N=C3Nc3ccc(CC(C)(C)NC[C@H](O)COc4ccc(O)cc4)cc3)CCCC2)cc1 [Compound 7, 4-{[(2S)-3-({2-[4-({4-[({1-[4-(dimethylamino)phenyl]cyclopentyl}methyl)amino]1,1-dioxido-1,25-thiadiazol-3-yl}amino)phenyl]-1 1-dimethylethyl}amino)-2-hydroxypropyl]oxy}phenol] | 0.74 | 55
8 | CCCCCCCCNC1=NS(=O)(=O)N=C1Nc1ccc(CC(C)NC[C@H](O)COc2ccc(OCc3ccccc3)cc2)cc1 (stereo partly drawn) [Compound 11, (2S)-1-(4-Benzyloxy-phenoxy)-3-{1-methyl-2-[4-(4-octylamino-1,1-dioxo-1H-1.lambda(6).-[1,2,5]thiadiazol-3-ylamino)-phenyl]-ethylamino}-propan-2-ol] | 0.29 | 
9 | CCCCCCCCCCNC1=NS(=O)(=O)N=C1Nc1ccc(CC(C)NC[C@H](O)COc2ccccc2)cc1 (stereo partly drawn) [Compound 20, (2S)-1-{2-[4-(4-Decylamino-1,1-dioxo-1H-1(lambda(6))-[1,2,5]thiadiazol-3-ylamino)-phenyl]-1-methyl-ethylamino}-3-phenoxy-propan-2-ol] | 0.39 | 
10 | CCCCCCCCNC1=NS(=O)(=O)N=C1Nc1ccc(CC(C)(C)NC[C@H](O)COc2ccc(O)cc2)cc1 [Compound 4] | 1.10 | 68
11 | CCOC(=O)CCCNC1=NS(=O)(=O)N=C1Nc1ccc(CC(C)NC[C@H](O)COc2ccc(O)cc2)cc1 (stereo partly drawn) [Compound 33, 4-{4-(4-{2-[(2S)-2-Hydroxy-3-(4-hydroxy-phenoxy)-propylamino]-propyl}-phenylamino)-1,1-dioxo-1H-1.lambda(6).-[1,2,5]thiadiazol-3-ylamino]-butyric acid ethyl ester] | 1.17 | 37
12 | CCOC(=O)CCCNC1=NS(=O)(=O)N=C1Nc1ccc(CC(C)NC[C@H](O)COc2ccc(OCc3ccccc3)cc2)cc1 (stereo partly drawn) [Compound 32, 4-[4-(4-{2-[(2S)-3-(4-benzyloxy-phenoxy)-2-hydroxy-propylamino]-propyl}-phenylamino)-1,1-Dioxo-1H-1(lambda(6))-[1,2,5]thiadiazol-3-ylamino]-butyric acid ethyl ester] | 0.62 | 90
13 | CCCCCCNC(=O)Nc1ccc(C2(CNC3=NS(=O)(=O)N=C3Nc3ccc(CC(C)(C)NC[C@@H](O)COc4ccc(OCc5ccccc5)cc4)cc3)CCCC2)cc1 [8 (step H), 1-[4-(1-{[4-(4-{2-[(2R)-3-(4-Benzyloxy-phenoxy)-2-hydroxy-propylamino]-2-methyl-propyl}-phenylamino)-1 1-dioxo-1H-1.lambda(6).-[1,2,5]thiadiazol-3-ylamino]-methyl}-cyclopentyl)-phenyl]-3-hexyl-urea] | 0.40 | 60
14 | CN(C)c1ccc(C2(CNC3=NS(=O)(=O)N=C3Nc3ccc(CC(C)(C)NCC(O)c4ccc(O)c(NS(C)(=O)=O)c4)cc3)CCCC2)cc1 (stereo not shown) [Compound 34, N-[5-(2-{2-[4-(4-{[1-(4-dimethylamino-phenyl)-cyclopentylmethyl]-amino}-1,1-dioxo-1H-1.lambda(6).-[1,2,5]thiadiazol-3-ylamino)-phenyl]-1,1-dimethyl-ethylamino}-1-hydroxy-ethyl)-2-hydroxy-phenyl]-methanesulfonamide] | 1.0 | 0.8
15 | CCCCCCCCNc1c(Nc2ccc(CC(C)NC[C@H](O)COc3ccc(O)cc3)cc2)c(=O)c1=O (stereo partly drawn) [Compound 14, 3-(4-{2-[(2S)-2-Hydroxy-3-(4-hydroxy-phenoxy)-propylamino]-propyl}-phenylamino)-4-octylamino-cyclobut-3-ene-1,2-dione] | 0.81 | 21
16 | CC(C)(Cc1ccc(NC2=NS(=O)(=O)N=C2NCC(c2ccccc2)c2ccccc2)cc1)NC[C@H](O)COc1ccc(O)cc1 [Compound 29, 4-[(2S)-3-(2-{4-[4-(2,2-Diphenyl-ethylamino)-1,1-dioxo-1H-1(lambda(6))-[1,2,5]thiadiazol-3-ylamino]-phenyl}-1,1-dimethyl-ethylamino)-2-hydroxy-propoxy]l-phenol] | 0.89 | 14
17 | CCCCCCCCNC1=NS(=O)(=O)N=C1Nc1ccc(CC(C)NCC(O)c2cccc(Cl)c2)cc1 [Compound 3, (1R)-1-(3-Chloro-phenyl)-2-{1-methyl-2-[4-(octylamino-1,1-dioxo-1H-1-.lambda(6).-1,2,5]thiadiazol-3-ylamino)-phenyl]-ethylamino}-ethanol] | 0.86 | 38
18 | CCCCCCCCNC1=NS(=O)(=O)N=C1Nc1ccc(CCNC[C@H](O)COc2ccc(OCc3ccccc3)cc2)cc1 [5 (step E), (2S)-1-(4-Benzyloxy-phenoxy)-3-{2-[4-(4-octylamino-1,1-dioxo-1H-1.lambda(6).-[1,2,5]thiadiazol-3-ylamino)-phenyl]ethylamino}-propan-2-ol] | 0.15 | 1390
